Experimental data from ChEMBL document CHEMBL1158470, “9-(Arenethenyl)purines as dual Src/Abl kinase inhibitors targeting the inactive conformation: design, synthesis, and biological evaluation” (J Med Chem, 2009).
Active and inactive are the calls of the source. The calls are words filed in the database; no cut-off is given here.

Tests used:
[1] = Antiproliferative activity against mouse BA/F3 cells expressing wild type Bcr-Abl after 3 days by MTS assay
[2] = Tmax in CD rat at 15 mg/kg, po; assay type: ADME, organism-based; parameters: dose 15 mg/kg, route oral; details: in vivo
[3] = Tmax in mouse at 10 mg/kg, po; assay type: ADME, organism-based; parameters: dose 10 mg/kg, route oral; details: in vivo
[4] = Cmax in CD rat at 15 mg/kg, po; assay type: ADME, organism-based; parameters: dose 15 mg/kg, route oral; details: in vivo
[5] = Clearance in CD rat at 5 mg/kg, iv; assay type: ADME, organism-based; parameters: dose 5 mg/kg, route intravenous; details: in vivo
[6] = Antitumor activity against mouse BA/F3 cells expressing wild type Bcr-Abl xenografted in CB17 SCID mouse assessed as median survival time at 10 mg/kg, po administered on day 3 once daily for 19 days; assay type: functional, BaF3
[7] = Oral bioavailability in mouse at 10 mg/kg; assay type: ADME, organism-based; details: in vivo
K562 = assay: Antiproliferative activity against human K562 cells after 3 days by MTS assay
NIH3T3 [8] = assay: Antitumor activity against in mouse NIH/3T3 cells expressing Src Y527F mutant xenografted in CD1 nude mouse assessed as complete tumor regression at 100 mg/kg, po administered daily for 21 days; assay type: functional, organism-based; parameters: dose 100 mg/kg
[9] = Half life in CD rat at 5 mg/kg, iv; assay type: ADME, organism-based; parameters: dose 5 mg/kg, route intravenous; details: in vivo
[10] = Oral bioavailability in CD rat at 15 mg/kg; assay type: ADME, organism-based; details: in vivo
[11] = Antiproliferative activity against mouse BA/F3 cells after 3 days by MTS assay
[12] = Cmax in mouse at 10 mg/kg, po; assay type: ADME, organism-based; parameters: dose 10 mg/kg, route oral; details: in vivo
[13] = AUC (0 to 24 hrs) in CD rat at 15 mg/kg, po; assay type: ADME, organism-based; parameters: time < 24 hr, dose 15 mg/kg, route oral; details: plasma
[14] = AUC (0 to 24 hrs) in mouse at 10 mg/kg, po; assay type: ADME, organism-based; parameters: time < 24 hr, dose 10 mg/kg, route oral; details: plasma
[15] = Volume of distribution in CD rat at 5 mg/kg, iv; assay type: ADME, organism-based; parameters: dose 5 mg/kg, route intravenous; details: in vivo
NIH3T3 [16] = assay: Antitumor activity against in po dosed mouse NIH/3T3 cells expressing Src Y527F mutant xenografted in CD1 nude mouse assessed as tumor shrinkage administered daily for 21 days; assay type: functional, organism-based
[17] = Antitumor activity against mouse BA/F3 cells expressing wild type Bcr-Abl xenografted in CB17 SCID mouse assessed as increase in mouse survival at 10 mg/kg, po administered on day 3 once daily for 19 days; assay type: functional; details: BaF3
[18] = Antiproliferative activity against mouse BA/F3 cells expressing Bcr-Abl T315I mutant after 3 days by MTS assay; details: BaF3, 72 h
[19] = molecular target: Proto-oncogene tyrosine-protein kinase Src (Homo sapiens, UniProt P12931)
Sequence of Proto-oncogene tyrosine-protein kinase Src (P12931 2-536 limits assumed): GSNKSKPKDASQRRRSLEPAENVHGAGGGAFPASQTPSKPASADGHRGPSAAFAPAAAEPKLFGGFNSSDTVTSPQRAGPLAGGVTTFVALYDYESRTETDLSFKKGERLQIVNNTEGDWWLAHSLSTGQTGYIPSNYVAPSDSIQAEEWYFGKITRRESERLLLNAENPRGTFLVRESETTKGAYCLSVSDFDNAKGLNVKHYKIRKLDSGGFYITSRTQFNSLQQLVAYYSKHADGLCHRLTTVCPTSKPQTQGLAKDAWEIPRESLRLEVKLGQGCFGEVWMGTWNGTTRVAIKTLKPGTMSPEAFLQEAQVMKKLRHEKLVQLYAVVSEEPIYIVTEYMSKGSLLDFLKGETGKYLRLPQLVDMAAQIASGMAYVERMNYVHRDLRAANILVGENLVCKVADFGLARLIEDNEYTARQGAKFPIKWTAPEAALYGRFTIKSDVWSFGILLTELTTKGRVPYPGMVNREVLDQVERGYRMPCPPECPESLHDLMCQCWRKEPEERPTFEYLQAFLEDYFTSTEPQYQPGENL
Description: Inhibition of human Src kinase by TR-FRET assay

[20] = molecular target: Tyrosine-protein kinase ABL1 (Homo sapiens, UniProt P00519)
Sequence of Tyrosine-protein kinase ABL1 (P00519 whole entry): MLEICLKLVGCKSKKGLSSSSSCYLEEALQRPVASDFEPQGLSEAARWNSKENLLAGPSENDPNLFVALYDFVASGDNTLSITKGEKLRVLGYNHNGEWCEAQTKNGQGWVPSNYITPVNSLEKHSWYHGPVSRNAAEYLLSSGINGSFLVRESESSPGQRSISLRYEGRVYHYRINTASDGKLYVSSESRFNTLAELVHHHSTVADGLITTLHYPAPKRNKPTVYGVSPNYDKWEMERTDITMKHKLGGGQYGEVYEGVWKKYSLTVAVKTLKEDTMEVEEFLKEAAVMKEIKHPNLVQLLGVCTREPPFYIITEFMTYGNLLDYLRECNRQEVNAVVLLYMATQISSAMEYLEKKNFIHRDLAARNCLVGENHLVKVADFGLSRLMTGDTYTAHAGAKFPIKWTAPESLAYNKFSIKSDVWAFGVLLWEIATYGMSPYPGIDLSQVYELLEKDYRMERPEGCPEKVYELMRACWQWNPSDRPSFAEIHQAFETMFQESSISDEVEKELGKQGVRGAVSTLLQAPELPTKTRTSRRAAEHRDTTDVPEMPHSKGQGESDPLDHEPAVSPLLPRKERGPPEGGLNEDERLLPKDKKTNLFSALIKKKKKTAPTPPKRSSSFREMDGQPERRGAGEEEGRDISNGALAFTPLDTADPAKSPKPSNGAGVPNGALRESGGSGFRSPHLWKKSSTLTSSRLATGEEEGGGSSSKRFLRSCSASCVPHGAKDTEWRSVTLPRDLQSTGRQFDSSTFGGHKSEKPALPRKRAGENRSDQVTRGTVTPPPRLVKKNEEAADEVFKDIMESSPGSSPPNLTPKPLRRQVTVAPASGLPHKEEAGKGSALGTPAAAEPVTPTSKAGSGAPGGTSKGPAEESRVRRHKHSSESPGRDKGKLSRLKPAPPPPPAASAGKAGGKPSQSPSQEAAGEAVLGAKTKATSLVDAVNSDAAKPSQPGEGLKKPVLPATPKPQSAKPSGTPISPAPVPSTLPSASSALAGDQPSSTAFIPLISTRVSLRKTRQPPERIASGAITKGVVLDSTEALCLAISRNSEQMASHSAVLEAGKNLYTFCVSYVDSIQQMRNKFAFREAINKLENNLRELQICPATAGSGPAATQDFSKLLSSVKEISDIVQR
Description: Inhibition of wild type human Abl kinase by TR-FRET assay

BaF3 [21] = assay: Antitumor activity against mouse BA/F3 cells expressing wild type Bcr-Abl xenografted in CB17 SCID mouse assessed as median survival time at 75 mg/kg, po administered on day 3 once daily for 19 days relative to control; assay type: functional, organism-based; parameters: dose 75 mg/kg
BaF3 [22] = assay: Antitumor activity against mouse BA/F3 cells expressing wild type Bcr-Abl xenografted in CB17 SCID mouse assessed as increase in mouse survival at 75 mg/kg, po administered on day 3 once daily for 19 days relative to control; assay type: functional, organism-based; parameters: dose 75 mg/kg
[23] = Antiproliferative activity against mouse BA/F3 cells expressing Bcr-Abl G250E mutant after 3 days by MTS assay; details: BaF3, 72 h
[24] = Antiproliferative activity against mouse BA/F3 cells expressing Bcr-Abl Q252H mutant after 3 days by MTS assay; details: BaF3, 72 h
[25] = Antiproliferative activity against mouse BA/F3 cells expressing Bcr-Abl L248R mutant after 3 days by MTS assay; details: BaF3, 72 h
[26] = Antiproliferative activity against mouse BA/F3 cells expressing Bcr-Abl Y253H mutant after 3 days by MTS assay; details: BaF3, 72 h
[27] = Antiproliferative activity against mouse BA/F3 cells expressing Bcr-Abl E255K mutant after 3 days by MTS assay; details: BaF3, 72 h

Row | SMILES | Tmax [2] | Cmax [4] | clearance [5] | IC50 (K562; Homo sapiens, K562, 72 h) | half-life [9] | IC50 ([11]; Mus musculus, BaF3, 72 h) | Vd [15] | other results
1 | Cc1ccc(C(=O)Nc2cc(C(F)(F)F)ccn2)cc1/C=C/n1cnc2cncnc21 |  |  |  |  |  |  |  | IC50 ([1]; Mus musculus, BaF3, 72 h): 5 nM
2 | Cc1ccc(C(=O)Nc2cc(C(F)(F)F)ccn2)cc1/C=C/n1cnc2c(NC3CC3)ncnc21 | 2 h | 23500 ng/mL | 0.667 mL/min/kg | 6.1 nM | 5.7 h | 4890 nM | 0.34 L/kg | Tmax [3]: 2 h; MST [6]: 35 days; bioavailability [7]: 100%; Activity (NIH3T3 [8]): Active; bioavailability [10]: 116%; Cmax [12]: 3100 ng/mL; AUC(0-t) at 24 h [13]: 428000 ng·h/mL; AUC(0-t) at 24 h [14]: 21200 ng·h/mL; Activity (NIH3T3 [16]): Dose-dependent effect; survival at 10 mg/kg [17]: 75%; IC50 [18]: 2750 nM
3 | Cc1ccc(C(=O)Nc2cccc(C(F)(F)F)c2)cc1/C=C/n1cnc2c(NC3CC3)ncnc21 |  |  |  | 17 nM |  | 4350 nM |  | 
4 | Cc1ccc(C(=O)Nc2cc(N3CCN(C)CC3)cc(C(F)(F)F)c2)cc1/C=C/n1cnc2c(NC3CC3)ncnc21 |  |  |  | 14 nM |  | 543 nM |  | 
5 | Cc1ccc(NC(=O)Nc2cccc(C(F)(F)F)c2)cc1/C=C/n1cnc2c(NC3CC3)ncnc21 |  |  |  | > 1000 nM |  |  |  | IC50 [19]: 517 nM
6 | Cc1ccc(C(=O)Nc2cccc(C(C)(C)C)c2)cc1/C=C/n1cnc2c(NC3CC3)ncnc21 | 1 h | 100 ng/mL | 29.8 mL/min/kg | 22 nM | 2.1 h | 2550 nM | 5.31 L/kg | bioavailability [10]: 3.5%; AUC(0-t) at 24 h [13]: 297 ng·h/mL
7 | Cc1ccc(NC(=O)c2cccc(C(F)(F)F)c2)cc1/C=C/n1cnc2c(NCCCN(C)C)ncnc21 |  |  |  |  |  |  |  | IC50 [19]: 159 nM; IC50 ([1]; baf3): Not Active; IC50 [20]: 157 nM; IC50 (K562; k562): Not Active; IC50 ([11]; baf3): Not Active
8 | CNc1ncnc2c1ncn2/C=C/c1cc(NC(=O)c2cccc(C(F)(F)F)c2)ccc1C |  |  | 6.33 mL/min/kg | 67 nM | 2.95 h | > 10000 nM | 1.6 L/kg | 
9 | Cc1cn(-c2cc(NC(=O)c3ccc(C)c(/C=C/n4cnc5cncnc54)c3)cc(C(F)(F)F)c2)cn1 |  |  |  |  |  |  |  | IC50 ([1]; Mus musculus, BaF3, 72 h): 7 nM
10 | Cc1ccc(NC(=O)c2cccc(C(F)(F)F)c2)cc1/C=C/n1cnc2c(Nc3ccncn3)ncnc21 |  |  |  | 62 nM |  | 2070 nM |  | 
11 | Cc1ccc(NC(=O)c2cccc(C(F)(F)F)c2)cc1/C=C/n1cnc2c(Nc3ccccn3)ncnc21 |  |  |  | 181 nM |  | 6260 nM |  | IC50 [19]: 201 nM; IC50 [20]: 243 nM
12 | Cc1ccc(C(=O)Nc2ccc(Cl)c(C(F)(F)F)c2)cc1/C=C/n1cnc2c(NC3CC3)ncnc21 |  |  |  | 69 nM |  | 2410 nM |  | 
13 | Cc1ccc(NC(=O)c2cccc(C(F)(F)F)c2)cc1/C=C/n1cnc2c(Nc3ccncc3)ncnc21 | 6 h | 483 ng/mL | 16 mL/min/kg | 3.7 nM | 6.7 h | 635 nM | 9.01 L/kg | 
14 | Cc1ccc(C(=O)Nc2ncc(C(C)(C)C)s2)cc1/C=C/n1cnc2c(NC3CC3)ncnc21 |  |  |  | 292 nM |  | 7120 nM |  | IC50 [19]: 310 nM; IC50 [20]: 267 nM
15 | Cc1ccc(NC(=O)c2cccc(C(F)(F)F)c2)cc1/C=C/n1cnc2c(Nc3cccnc3)ncnc21 | 2 h | 387 ng/mL | 8.17 mL/min/kg | 2.7 nM | 2.4 h | > 10000 nM | 1.7 L/kg | IC50 ([1]; baf3): Not Active; bioavailability [10]: 11%; AUC(0-t) at 24 h [13]: 3310 ng·h/mL
16 | Cc1cn(-c2cc(NC(=O)c3ccc(C)c(Nc4nccc(-c5cccnc5)n4)c3)cc(C(F)(F)F)c2)cn1 |  |  |  |  |  |  |  | Activity (BaF3 [21]): Active; Activity (BaF3 [22]): Active
17 | Cc1ccc(NC(=O)c2cccc(C(F)(F)F)c2)cc1/C=C/n1cnc2c(Nc3ccc(P(C)(C)=O)cc3)ncnc21 | 1 h | 63 ng/mL | 13.2 mL/min/kg | 0.95 nM | 3.1 h | 7600 nM | 3.54 L/kg | bioavailability [10]: 0.8%; AUC(0-t) at 24 h [13]: 146 ng·h/mL
18 | Cc1ccc(NC(=O)c2cccc(C(F)(F)F)c2)cc1/C=C/n1cnc2c(NC3CC3)ncnc21 | 1 h | 2610 ng/mL | 3.17 mL/min/kg | 95 nM | 4 h | 7860 nM | 1.08 L/kg | bioavailability [10]: 40%; AUC(0-t) at 24 h [13]: 32200 ng·h/mL
19 | Cc1ccc(C(=O)Nc2cc(C(C)(C)C)on2)cc1/C=C/n1cnc2c(NC3CC3)ncnc21 | 1 h | 1040 ng/mL | 15 mL/min/kg | 15 nM | 3.7 h | > 10000 nM | 4.87 L/kg | bioavailability [10]: 45%; AUC(0-t) at 24 h [13]: 7540 ng·h/mL
20 | CNc1ncnc2c1ncn2CCc1cc(NC(=O)c2cccc(C(F)(F)F)c2)ccc1C |  |  |  |  |  | 9680 nM |  | IC50 [19]: 300 nM; IC50 (K562; k562): Not Active
21 | Cc1ccc(C(=O)Nc2cc(C(C)(C)C)nn2C)cc1/C=C/n1cnc2c(NC3CC3)ncnc21 |  |  |  | 35 nM |  | 9030 nM |  | IC50 [20]: 146 nM
22 | Cc1ccc(C(=O)Nc2cc(N3CCOCC3)cc(C(F)(F)F)c2)cc1/C=C/n1cnc2c(NC3CC3)ncnc21 |  |  |  | 17 nM |  | 2520 nM |  | 
23 | Cc1ccc(C(=O)Nc2cc(C(F)(F)F)ccc2F)cc1/C=C/n1cnc2c(NC3CC3)ncnc21 |  |  |  | 68 nM |  | 7660 nM |  | IC50 [20]: 236 nM
24 | Cc1cn(-c2cc(NC(=O)c3ccc(C)c(/C=C/n4cnc5c(NC6CC6)ncnc54)c3)cc(C(F)(F)F)c2)cn1 | 2 h | 1750 ng/mL | 1 mL/min/kg | 4.3 nM | 8.3 h | 6460 nM | 0.78 L/kg | IC50 [23]: 63 nM; IC50 [24]: 42 nM; Tmax [3]: 1 h; IC50 [25]: 64 nM; IC50 [26]: 44 nM; bioavailability [10]: 7%; Cmax [12]: 1020 ng/mL; AUC(0-t) at 24 h [13]: 17200 ng·h/mL; AUC(0-t) at 24 h [14]: 6930 ng·h/mL; IC50 [27]: 24 nM; IC50 [18]: 422 nM
25 | Cc1ccc(C(=O)Nc2cccc(C(C)C)c2)cc1/C=C/n1cnc2c(NC3CC3)ncnc21 |  |  |  | 63 nM |  | 8320 nM |  | 
26 | Cc1ccc(C(=O)Nc2cc(-n3ccnc3)cc(C(F)(F)F)c2)cc1/C=C/n1cnc2c(NC3CC3)ncnc21 |  |  |  | 5.4 nM |  | 7120 nM |  | IC50 [18]: 298 nM
